In US11780833B2, “Emetine derivatives, prodrugs containing same, and methods of treating conditions using same” (HOWARD UNIVERSITY, priority 2011, dated 2023):
Like-named read-outs stand apart in the source and are kept apart here.

Legend:
LNCaP cells = assay: Cytotoxicity in LNCaP prostate cancer cell line; type: cell-based; conditions: Homo sapiens, 168 h, read-out: IC50 after 7 days
Protocol: (§1) Studies were carried out on three prostate cancer cell lines: LNCaP, PC3, and DU145. […] There was not a significant difference in cytotoxicity of emetine between days 3 and 7. […] This increase is most likely due to the release of emetine from the dithiocarbamate salt over the time period. Further drug release studies at pH 5 confirmed about 45% release of emetine from the dithiocarbamate salt after 3-day incubation at this acidic pH maintained at 37° C., whereas release of emetine from the dithiocarbamate salt was not observed at physiological pH (e.g., about 7.4).
(§2) Various compounds prepared according to Examples 1-5 were studied in LNCaP, PC3, and DU145 cells.

PC3 cells = assay: cells; type: cell-based; conditions: Homo sapiens
Protocol: as §1, §2
(§3) Various compounds prepared according to Example 6 were studied in DU145 and PC3 cells. The IC50 was determined at 3, 5, and 7 days.

DU145 cells = assay: cells; type: cell-based; conditions: Homo sapiens
Protocol: as §1, §2, §3

[1] = pH-responsiveness by HPLC: emetine released in aqueous phosphate buffer; type: physicochemical; conditions: 37° C.
Protocol: Relative rates of hydrolysis of the compounds listed in Table 5 below over a 48 hour period were evaluated using the percent emetine released from the acid catalyzed hydrolysis of compounds 1 to 6.
The compounds were incubated in aqueous phosphate buffer at pH 5.5, 6.5 and 7.4 at 37° C. over a 48 hour period. High performance liquid chromatography (HPLC) was employed to analyze the samples and quantify how much emetine was released. The compounds whose hydrolysis to emetine is shown in table 5 are all 100% stable at physiological pH 7.4 up to a 5 day exposure.

[2] = PC-3, 72 h, read-out: IC50 in PC3
[3] = PC-3, 120 h, read-out: IC50 in PC3
[4] = PC-3, 168 h, read-out: IC50 in PC3
[5] = DU-145, 72 h, read-out: IC50 in DU145
[6] = DU-145, 120 h, read-out: IC50 in DU145
[7] = DU-145, 168 h, read-out: IC50 in DU145
[8] = DU-145, 168 h, read-out: IC50 after 7 days
[9] = PC-3, 168 h, read-out: IC50 after 7 days

Structure (SMILES) | IC50 (LNCaP cells) [µM] | IC50 (DU145 cells; [8]) [µM] | IC50 (PC3 cells; [9]) [µM] | further results
CCC1CN2CCc3cc(OC)c(OC)cc3C2CC1CC1c2cc(OC)c(OC)cc2CCN1C(=O)NCc1ccccc1 (stereo not drawn) [Compound 13e] | 2.12 ± 0.576 |  |  | 
CCC1CN2CCc3cc(OC)c(OC)cc3C2CC1CC1c2cc(OC)c(OC)cc2CCN1C(=O)CCC(=O)O (stereo not drawn) [Compound 15e2] |  |  |  | IC50 (PC3 cells; [2]): 2.5 ± 0.0722 µM; IC50 (PC3 cells; [3]): 1.82 ± 0.161 µM; IC50 (PC3 cells; [4]): 2.15 ± 0.131 µM; IC50 (DU145 cells; [5]): 0.733 ± 0.022 µM; IC50 (DU145 cells; [6]): 0.641 ± 0.0543 µM; IC50 (DU145 cells; [7]): 0.802 ± 0.0198 µM
CCC1CN2CCc3cc(OC)c(OC)cc3C2CC1CC1c2cc(OC)c(OC)cc2CCN1C(=O)/C=C/C(=O)O (stereo not drawn) [Compound 15a2] |  |  |  | IC50 (PC3 cells; [2]): 8.39 ± 0.208 µM; IC50 (PC3 cells; [3]): 7.058 ± 0.0157 µM; IC50 (PC3 cells; [4]): 7.71 ± 0.151 µM; IC50 (DU145 cells; [5]): 7.96 ± 0.312 µM; IC50 (DU145 cells; [6]): 5.73 ± 0.182 µM; IC50 (DU145 cells; [7]): 4.23 ± 0.418 µM
CCC1CN2CCc3cc(OC)c(OC)cc3C2CC1CC1c2cc(OC)c(OC)cc2CCN1C(=O)/C=C\C(=O)O (stereo not drawn) [Compound 4] |  |  |  | % Emetine at pH 5.5 ([1]; pH 5.5, 0 hr): 0.0%; % Emetine at pH 5.5 ([1]; pH 5.5, 24 hrs): 19.2%; % Emetine at pH 5.5 ([1]; pH 5.5, 48 hrs): 27.1%; % Emetine at pH 6.5 ([1]; pH 6.5, 0 hr): 0.0%; % Emetine at pH 6.5 ([1]; pH 6.5, 24 hrs): 8.2%; % Emetine at pH 6.5 ([1]; pH 6.5, 48 hrs): 17.1%; % Emetine at pH 7.4 to 8.0 over 72 hrs ([1]; pH 7.4 to 8.0, 0 hrs): 0.0%; % Emetine at pH 7.4 to 8.0 over 72 hrs ([1]; pH 7.4 to 8.0, 24 hrs): 0.0%; % Emetine at pH 7.4 to 8.0 over 72 hrs ([1]; pH 7.4 to 8.0, 48 hrs): 0.0%
CCC1CN2CCc3cc(OC)c(OC)cc3C2CC1CC1c2cc(OC)c(OC)cc2CCN1C(=S)NCc1ccc(C)cc1 (stereo not drawn) [Compound 11j] |  | 2.63 ± 0.106 |  | 
CCCCCCCCNC(=S)N1CCc2cc(OC)c(OC)cc2C1CC1CC2c3cc(OC)c(OC)cc3CCN2CC1CC (stereo not drawn) [Compound 11m] | 1.01 ± 0.249 |  | 1.43 ± 0.336 | 
CCCCNC(=S)N1CCc2cc(OC)c(OC)cc2C1CC1CC2c3cc(OC)c(OC)cc3CCN2CC1CC (stereo not drawn) [Compound 11k] | 1.31 ± 0.166 | 6.587 ± 0.0348 | 6.92 ± 0.17 | 
CCC1CN2CCc3cc(OC)c(OC)cc3C2CC1CC1c2cc(OC)c(OC)cc2CCN1S(=O)(=O)c1ccc(Cl)cc1 (stereo not drawn) [Compound 8d] |  | 6.62 ± 0.167 | 4.21 ± 0.435 | 
CCC1CN2CCc3cc(OC)c(OC)cc3C2CC1CC1c2cc(OC)c(OC)cc2CCN1C(=S)SCc1ccccc1 (stereo not drawn) [Compound 4f] | 1.97 ± 0.088 | 1.98 ± 0.213 | 1.56 ± 0.29 | 
CCCCCCNC(=S)N1CCc2cc(OC)c(OC)cc2C1CC1CC2c3cc(OC)c(OC)cc3CCN2CC1CC (stereo not drawn) [Compound 11l] | 1.7 ± 0.144 |  | 2.45 ± 0.323 | 
CCC1CN2CCc3cc(OC)c(OC)cc3C2CC1CC1c2cc(OC)c(OC)cc2CCN1C(=S)NCc1ccc(OC)cc1 (stereo not drawn) [Compound 11f] |  |  | 5 ± 0.307 | 
CCC1CN2CCc3cc(OC)c(OC)cc3C2CC1CC1c2cc(OC)c(OC)cc2CCN1C(=O)OCc1ccccc1 (stereo not drawn) [Compound 5b] | 2.16 ± 0.122 |  |  | 
CCC1CN2CCc3cc(OC)c(OC)cc3C2CC1CC1c2cc(OC)c(OC)cc2CCN1C(=S)Nc1ccccc1 (stereo not drawn) [Compound 11a] |  |  | 0.484 ± 0.0247 | 
CCC1CN2CCc3cc(OC)c(OC)cc3C2CC1CC1c2cc(OC)c(OC)cc2CCN1C(=S)NCc1ccc(Cl)cc1 (stereo not drawn) [Compound 11g] | 1.59 ± 0.151 | 2.32 ± 0.091 | 2.86 ± 0.0662 | 
CCC1CN2CCc3cc(OC)c(OC)cc3C2CC1CC1c2cc(OC)c(OC)cc2CCN1S(=O)(=O)c1ccccc1 (stereo not drawn) [Compound 8e] | 2.26 ± 0.798 | > 10 | > 10 | 
CCC1CN2CCc3cc(OC)c(OC)cc3C2CC1CC1c2cc(OC)c(OC)cc2CCN1S(C)(=O)=O (stereo not drawn) [Compound 8b] | 2.1 ± 0.284 |  | 4.01 ± 0.868 | 
CCC1CN2CCc3cc(OC)c(OC)cc3C2CC1CC1c2cc(OC)c(OC)cc2CCN1C(=S)Nc1ccc(Br)cc1 (stereo not drawn) [Compound 11d] | 0.339 ± 0.0327 |  | 0.443 ± 0.0383 | 
CCC1CN2CCc3cc(OC)c(OC)cc3C2CC1CC1c2cc(OC)c(OC)cc2CCN1C(=S)SCCN1C(=O)c2ccccc2C1=O (stereo not drawn) [Compound 4d] |  | 3.05 ± 0.07 | 2.77 ± 0.06 | 
CCC1CN2CCc3cc(OC)c(OC)cc3C2CC1CC1c2cc(OC)c(OC)cc2CCN1C(=S)Nc1ccc(Cl)cc1 (stereo not drawn) [Compound 11c] |  |  | 0.505 ± 0.0159 | 
